# Data reported in patent US12544395B2, “Combination compositions comprising a beta-lactamase inhibitor and uses thereof” (priority 2018, dated 2026).
# Key:
# Type in all cases: cell-based
# [1] = test system: K. pneumoniae ESBL 7 #1; experiment: Broth microdilution MIC (strain enzymes: SHV-12, TEM-1)
# [2] = test system: K. pneumoniae ESBL 10; experiment: as above
# [3] = test system: E. coli 25922; experiment: Broth microdilution MIC (strain enzymes: None detected)
# [4] = test system: three strains of E. coli expressing TEM-1+CTX-M-15, CTX-M-15, and KPC-2+SHV-12; experiment: MIC against the UTI test strains; conditions: with Compound 2 at a fixed concentration of 4 μg/mL
# [5] = test system: K. pneumoniae 153239; experiment: Broth microdilution MIC (strain enzymes: SHV-11, TEM-1)
# [6] = test system: 21 strains of Enterobacteriaceae expressing various beta-lactamases; experiment: MIC testing of thigh model strains; conditions: with Compound 2 fixed at 4 mg/L
# [7] = test system: E. coli ESBL 4; experiment: Broth microdilution MIC (strain enzymes: CTX-M15, TEM-1)
# [8] = test system: K. pneumoniae 11/23 LF#2; experiment: microbe, parasite or virus in culture
# [9] = test system: K. pneumoniae 329633; experiment: Broth microdilution MIC (strain enzymes: SHV-5, TEM-1)
# [10] = test system: E. coli SI-LP377; experiment: microbe, parasite or virus in culture
# [11] = test system: K. pneumoniae SI-KP NO30; experiment: Broth microdilution MIC (strain enzymes: TEM-26b, SHV-60, SHV-26)
structure (smiles),measurement,setting,value
"CCC(=O)N[C@H]1Cc2cccc(C(=O)O)c2OB1O [Compound 2, (R)-2-hydroxy-3-propionamido-3,4-dihydro-2H-benzo[e][1,2]oxaborinine-8-carboxylic acid]",MIC of cefalexin (LEX),[1]; with inhibitor at 1 μg/mL,0.5 µg/mL
same,MIC of cefdinir (CDR),[1]; with inhibitor at 1 μg/mL,0.5 µg/mL
same,MIC of cefixime (CFM),[1]; with inhibitor at 1 μg/mL,4 µg/mL
same,MIC of ceftibuten (CTB),[1]; with inhibitor at 1 μg/mL,0.25 µg/mL
same,MIC of cefalexin (LEX),[1]; with inhibitor at 2 μg/mL,1 µg/mL
same,MIC of cefdinir (CDR),[1]; with inhibitor at 2 μg/mL,1 µg/mL
same,MIC of cefixime (CFM),[1]; with inhibitor at 2 μg/mL,4 µg/mL
same,MIC of ceftibuten (CTB),[1]; with inhibitor at 2 μg/mL,0.25 µg/mL
same,MIC of cefalexin (LEX),[1]; with inhibitor at 4 μg/mL,0.5 µg/mL
same,MIC of cefdinir (CDR),[1]; with inhibitor at 4 μg/mL,0.5 µg/mL
same,MIC of cefixime (CFM),[1]; with inhibitor at 4 μg/mL,1 µg/mL
same,MIC of ceftibuten (CTB),[1]; with inhibitor at 4 μg/mL,0.125 µg/mL
same,MIC of cefalexin (LEX),[2]; with inhibitor at 1 μg/mL,1 µg/mL
same,MIC of cefdinir (CDR),[2]; with inhibitor at 1 μg/mL,1 µg/mL
same,MIC of cefixime (CFM),[2]; with inhibitor at 1 μg/mL,2 µg/mL
same,MIC of ceftibuten (CTB),[2]; with inhibitor at 1 μg/mL,0.25 µg/mL
same,MIC of cefalexin (LEX),[2]; with inhibitor at 2 μg/mL,1 µg/mL
same,MIC of cefdinir (CDR),[2]; with inhibitor at 2 μg/mL,1 µg/mL
same,MIC of cefixime (CFM),[2]; with inhibitor at 2 μg/mL,1 µg/mL
same,MIC of ceftibuten (CTB),[2]; with inhibitor at 2 μg/mL,0.25 µg/mL
same,MIC of cefalexin (LEX),[2]; with inhibitor at 4 μg/mL,0.5 µg/mL
same,MIC of cefdinir (CDR),[2]; with inhibitor at 4 μg/mL,0.5 µg/mL
same,MIC of cefixime (CFM),[2]; with inhibitor at 4 μg/mL,0.5 µg/mL
same,MIC of ceftibuten (CTB),[2]; with inhibitor at 4 μg/mL,0.25 µg/mL
same,MIC of cefalexin (LEX),[3]; with inhibitor at 1 μg/mL,0.125 µg/mL
same,MIC of cefdinir (CDR),[3]; with inhibitor at 1 μg/mL,0.125 µg/mL
same,MIC of cefixime (CFM),[3]; with inhibitor at 1 μg/mL,0.125 µg/mL
same,MIC of ceftibuten (CTB),[3]; with inhibitor at 1 μg/mL,0.125 µg/mL
same,MIC of cefalexin (LEX),[3]; with inhibitor at 2 μg/mL,0.125 µg/mL
same,MIC of cefdinir (CDR),[3]; with inhibitor at 2 μg/mL,0.125 µg/mL
same,MIC of cefixime (CFM),[3]; with inhibitor at 2 μg/mL,0.06 µg/mL
same,MIC of ceftibuten (CTB),[3]; with inhibitor at 2 μg/mL,0.06 µg/mL
same,MIC of cefalexin (LEX),[3]; with inhibitor at 4 μg/mL,0.125 µg/mL
same,MIC of cefdinir (CDR),[3]; with inhibitor at 4 μg/mL,0.125 µg/mL
same,MIC of cefixime (CFM),[3]; with inhibitor at 4 μg/mL,0.06 µg/mL
same,MIC of ceftibuten (CTB),[3]; with inhibitor at 4 μg/mL,0.06 µg/mL
same,ceftibuten MICs,[4],<0.06 to 0.12 µg/mL
same,MIC of cefalexin (LEX),[5]; with inhibitor at 1 μg/mL,0.5 µg/mL
same,MIC of cefdinir (CDR),[5]; with inhibitor at 1 μg/mL,0.5 µg/mL
same,MIC of cefixime (CFM),[5]; with inhibitor at 1 μg/mL,0.125 µg/mL
same,MIC of ceftibuten (CTB),[5]; with inhibitor at 1 μg/mL,0.06 µg/mL
same,MIC of cefalexin (LEX),[5]; with inhibitor at 2 μg/mL,0.25 µg/mL
same,MIC of cefdinir (CDR),[5]; with inhibitor at 2 μg/mL,0.25 µg/mL
same,MIC of cefixime (CFM),[5]; with inhibitor at 2 μg/mL,0.5 µg/mL
same,MIC of ceftibuten (CTB),[5]; with inhibitor at 2 μg/mL,0.125 µg/mL
same,MIC of cefalexin (LEX),[5]; with inhibitor at 4 μg/mL,0.25 µg/mL
same,MIC of cefdinir (CDR),[5]; with inhibitor at 4 μg/mL,0.25 µg/mL
same,MIC of cefixime (CFM),[5]; with inhibitor at 4 μg/mL,0.25 µg/mL
same,MIC of ceftibuten (CTB),[5]; with inhibitor at 4 μg/mL,0.06 µg/mL
same,ceftibuten MICs,[6],≤ 2 µg/mL
same,MIC of cefalexin (LEX),[7]; with inhibitor at 1 μg/mL,2 µg/mL
same,MIC of cefdinir (CDR),[7]; with inhibitor at 1 μg/mL,2 µg/mL
same,MIC of cefixime (CFM),[7]; with inhibitor at 1 μg/mL,0.5 µg/mL
same,MIC of ceftibuten (CTB),[7]; with inhibitor at 1 μg/mL,0.25 µg/mL
same,MIC of cefalexin (LEX),[7]; with inhibitor at 2 μg/mL,1 µg/mL
same,MIC of cefdinir (CDR),[7]; with inhibitor at 2 μg/mL,1 µg/mL
same,MIC of cefixime (CFM),[7]; with inhibitor at 2 μg/mL,0.25 µg/mL
same,MIC of ceftibuten (CTB),[7]; with inhibitor at 2 μg/mL,0.125 µg/mL
same,MIC of cefalexin (LEX),[7]; with inhibitor at 4 μg/mL,0.5 µg/mL
same,MIC of cefdinir (CDR),[7]; with inhibitor at 4 μg/mL,0.5 µg/mL
same,MIC of cefixime (CFM),[7]; with inhibitor at 4 μg/mL,0.25 µg/mL
same,MIC of ceftibuten (CTB),[7]; with inhibitor at 4 μg/mL,0.25 µg/mL
same,MIC of cefalexin (LEX),[8]; with inhibitor at 1 μg/mL,0.25 µg/mL
same,MIC of cefdinir (CDR),[8]; with inhibitor at 1 μg/mL,0.25 µg/mL
same,MIC of cefixime (CFM),[8]; with inhibitor at 1 μg/mL,4 µg/mL
same,MIC of ceftibuten (CTB),[8]; with inhibitor at 1 μg/mL,0.25 µg/mL
same,MIC of cefalexin (LEX),[8]; with inhibitor at 2 μg/mL,0.5 µg/mL
same,MIC of cefdinir (CDR),[8]; with inhibitor at 2 μg/mL,0.5 µg/mL
same,MIC of cefixime (CFM),[8]; with inhibitor at 2 μg/mL,2 µg/mL
same,MIC of ceftibuten (CTB),[8]; with inhibitor at 2 μg/mL,0.25 µg/mL
same,MIC of cefalexin (LEX),[8]; with inhibitor at 4 μg/mL,0.25 µg/mL
same,MIC of cefdinir (CDR),[8]; with inhibitor at 4 μg/mL,0.25 µg/mL
same,MIC of cefixime (CFM),[8]; with inhibitor at 4 μg/mL,1 µg/mL
same,MIC of ceftibuten (CTB),[8]; with inhibitor at 4 μg/mL,0.125 µg/mL
same,MIC of cefalexin (LEX),[9]; with inhibitor at 1 μg/mL,0.25 µg/mL
same,MIC of cefdinir (CDR),[9]; with inhibitor at 1 μg/mL,0.25 µg/mL
same,MIC of cefixime (CFM),[9]; with inhibitor at 1 μg/mL,1 µg/mL
same,MIC of ceftibuten (CTB),[9]; with inhibitor at 1 μg/mL,0.06 µg/mL
same,MIC of cefalexin (LEX),[9]; with inhibitor at 2 μg/mL,0.25 µg/mL
same,MIC of cefdinir (CDR),[9]; with inhibitor at 2 μg/mL,0.25 µg/mL
same,MIC of cefixime (CFM),[9]; with inhibitor at 2 μg/mL,0.5 µg/mL
same,MIC of ceftibuten (CTB),[9]; with inhibitor at 2 μg/mL,0.06 µg/mL
same,MIC of cefalexin (LEX),[9]; with inhibitor at 4 μg/mL,1 µg/mL
same,MIC of cefdinir (CDR),[9]; with inhibitor at 4 μg/mL,1 µg/mL
same,MIC of cefixime (CFM),[9]; with inhibitor at 4 μg/mL,0.5 µg/mL
same,MIC of ceftibuten (CTB),[9]; with inhibitor at 4 μg/mL,0.06 µg/mL
same,MIC of cefalexin (LEX),[10]; with inhibitor at 1 μg/mL,4 µg/mL
same,MIC of cefdinir (CDR),[10]; with inhibitor at 1 μg/mL,4 µg/mL
same,MIC of cefixime (CFM),[10]; with inhibitor at 1 μg/mL,0.5 µg/mL
same,MIC of ceftibuten (CTB),[10]; with inhibitor at 1 μg/mL,0.125 µg/mL
same,MIC of cefalexin (LEX),[10]; with inhibitor at 2 μg/mL,1 µg/mL
same,MIC of cefdinir (CDR),[10]; with inhibitor at 2 μg/mL,1 µg/mL
same,MIC of cefixime (CFM),[10]; with inhibitor at 2 μg/mL,0.25 µg/mL
same,MIC of ceftibuten (CTB),[10]; with inhibitor at 2 μg/mL,0.125 µg/mL
same,MIC of cefalexin (LEX),[10]; with inhibitor at 4 μg/mL,1 µg/mL
same,MIC of cefdinir (CDR),[10]; with inhibitor at 4 μg/mL,1 µg/mL
same,MIC of cefixime (CFM),[10]; with inhibitor at 4 μg/mL,0.125 µg/mL
same,MIC of ceftibuten (CTB),[10]; with inhibitor at 4 μg/mL,0.125 µg/mL
same,MIC of cefalexin (LEX),[11]; with inhibitor at 1 μg/mL,0.125 µg/mL
same,MIC of cefdinir (CDR),[11]; with inhibitor at 1 μg/mL,0.125 µg/mL
same,MIC of cefixime (CFM),[11]; with inhibitor at 1 μg/mL,0.5 µg/mL
same,MIC of ceftibuten (CTB),[11]; with inhibitor at 1 μg/mL,0.06 µg/mL
same,MIC of cefalexin (LEX),[11]; with inhibitor at 2 μg/mL,0.25 µg/mL
same,MIC of cefdinir (CDR),[11]; with inhibitor at 2 μg/mL,0.25 µg/mL
same,MIC of cefixime (CFM),[11]; with inhibitor at 2 μg/mL,0.25 µg/mL
same,MIC of ceftibuten (CTB),[11]; with inhibitor at 2 μg/mL,0.06 µg/mL
same,MIC of cefalexin (LEX),[11]; with inhibitor at 4 μg/mL,0.125 µg/mL
same,MIC of cefdinir (CDR),[11]; with inhibitor at 4 μg/mL,0.125 µg/mL
same,MIC of cefixime (CFM),[11]; with inhibitor at 4 μg/mL,0.25 µg/mL
same,MIC of ceftibuten (CTB),[11]; with inhibitor at 4 μg/mL,0.06 µg/mL
